The test system of assay [1] is Lactobacillus sakei subsp. sakei ATCC 15521. Briefly: critical dilution assay (bacteriocin activity / MIC). The format is cell-based. The settings on record: ratio of peptides about 1:1 (w/w).
In assay [2] the test system is Lactobacillus iners. The description is as above. The format is cell-based. The settings on record: for L. iners HM-702 MIC: ratio of peptides about 1:1 (w/w); for L. iners HM-702 MIC / MIC against L. iners: L. iners HM-702; for MIC against L. iners: molar value given in brackets; for anti-L. iners activity of purified chromatography fraction: reverse phase fractions identified by MALDI-TOF.

Assay [3] concerns L. iners HM-702. Briefly: combined use of K7 bacteriocins and metronidazole, OD 600 nm. Type of assay: cell-based, Lactobacillus iners. The settings on record: 48 hours; K7 bacteriocin 80 BU/mL, metronidazole 42 μg/mL. As to the method: (§1) The effectiveness of the combined use of the K7 bacteriocins and metronidazole was tested against L. iners and G. vaginalis in vitro. Cultures of L. iners HM-702 and G. vaginalis HM-133, L. iners+G. vaginalis co-cultures, and L. crispatus SJ-3C were obtained as described previously in Example 1. Overnight cultures of L. iners, G. vaginalis, and L. crispatus were diluted in fresh growth media to concentrations of approximately 10^5 CFU/mL to be tested against K7 bacteriocin (from Example 1), metronidazole (Sigma-Aldrich, USA), and K7 bacteriocin+metronidazole (combined). To each culture of L. iners, G. vaginalis, the L. iners+G. vaginalis co-culture, and L. crispatus was added semi-purified K7 bacteriocin (80 BU/mL, quantified using L. iners as indicator), metronidazole (42 μg/mL), or the K7 bacteriocin+metronidazole combination, and incubated anaerobically at 37° C. for 48 hours. As controls, L. iners, G. vaginalis, the L. iners+G. vaginalis, and L. crispatus were incubated alone with conditioned media for 48 hours as well.

For assay [4], the system named is L. crispatus SJ-3C. The assay is described as above. The format is cell-based, Lactobacillus crispatus. The settings on record: 48 hours; K7 bacteriocin 80 BU/mL, metronidazole 42 μg/mL. As to the method: as §1
Assay [5] has as its system G. vaginalis HM-133. Described as above. The settings on record: 48 hours; K7 bacteriocin 80 BU/mL, metronidazole 42 μg/mL. The format is cell-based, Gardnerella vaginalis. As for the experimental part:
as §1

These results are taken from patent publication US11571458B2, “Bacteriocins to improve vaginal colonization of hydrogen peroxide producing lactobacillus for female reproductive health” (Osel, Inc., priority 2018, dated 2023).

On to “RNNWAANIGGAGGATVAGWALGNAVCGPACGFVGAHYVPIAWAGVTAATGGFGKIRK (listed as Lactobacillus paragasseri) [GasK7B α, α peptide of two-component bacteriocin gassericin K7B from L. paragasseri K7]”, for which the “L. sakei subsp. sakei ATCC 15521 MIC” value in assay [1] was 0.0016 µg/mL. For the same molecule, in assay [2] (critical dilution assay), the “L. iners HM-702 MIC” value came out at 0.025 µg/mL. Moreover, in assay [2], the “MIC against L. iners” value turned out to be 5 nM and the “anti-L. iners activity of purified chromatography fraction” value is “greatest anti-L. iners activity”. The “activity of peptide expressed as MBP fusion in E. coli” value in assay [2] (critical dilution assay, data not shown) is given as “comparable to the peptide isolated from K7”.
Take “NKWGNAVIGAATGATRGVSWCRGFGPWGMTACGLGGAAIGGYLGYKSN (listed as Lactobacillus paragasseri) [GasK7B β, β peptide of two-component bacteriocin gassericin K7B from L. paragasseri K7]”: in assay [1], the “L. sakei subsp. sakei ATCC 15521 MIC” value was 0.025 µg/mL. Moreover, the “L. iners HM-702 MIC” value in assay [2] (critical dilution assay) was above 0.1 µg/mL. Besides, in assay [2], the “anti-L. iners activity of purified chromatography fraction” value is recorded as “minor peak of activity”.
Turning to `Cc1ncc([N+](=O)[O-])n1CCO` [metronidazole], the “sensitivity of L. iners (OD 600 nm)” value in assay [3] is reported as “not sensitive”. The “inhibition of L. crispatus SJ-3C (OD 600 nm)” value in assay [4] was “not significantly inhibited”. Also, the “sensitivity of G. vaginalis (OD 600 nm)” value in assay [5] is “sensitive”.
Regarding “NNVNWGSVAGSCGKGAVMEIYFGNPILGCANGAATSLVLQTASGIYKNYQKKR (listed as Lactobacillus paragasseri) [GasK7A β, β peptide of two-component bacteriocin gassericin K7A]”, the “L. sakei subsp. sakei ATCC 15521 MIC” value in assay [1] is above 4 µg/mL. Also, in assay [2] (critical dilution assay), the “L. iners HM-702 MIC” value was above 4 µg/mL.

B1: KNWSVAKCGGTIGTNIAIGAWRGARAGSFFGQPVSVGTGALIGASAGAIGGSVQCVGWLAGGGR (protein, listed as Lactobacillus paragasseri)
chain: KNWSVAKCGGTIGTNIAIGAWRGARAGSFFGQPVSVGTGALIGASAGAIGGSVQCVGWLAGGGR
notes: α peptide of two-component bacteriocin gassericin K7A from L. paragasseri K7
As for B1, the “L. sakei subsp. sakei ATCC 15521 MIC” value in assay [1] was determined as 0.0094 µg/mL. In assay [2] (critical dilution assay), the “L. iners HM-702 MIC” value is 0.075 µg/mL. Besides, the “MIC against L. iners” value in assay [2] is 12 nM.
